{"source": "ChEMBL document CHEMBL3639166", "about": "“Heteroaryloxyheterocyclyl compounds as PDE10 inhibitors” (2013)"}
{"target": "T1, cAMP and cAMP-inhibited cGMP 3',5'-cyclic phosphodiesterase 10A (Rattus norvegicus, UniProt Q9QYJ6)", "T1 sequence (Q9QYJ6 whole entry)": "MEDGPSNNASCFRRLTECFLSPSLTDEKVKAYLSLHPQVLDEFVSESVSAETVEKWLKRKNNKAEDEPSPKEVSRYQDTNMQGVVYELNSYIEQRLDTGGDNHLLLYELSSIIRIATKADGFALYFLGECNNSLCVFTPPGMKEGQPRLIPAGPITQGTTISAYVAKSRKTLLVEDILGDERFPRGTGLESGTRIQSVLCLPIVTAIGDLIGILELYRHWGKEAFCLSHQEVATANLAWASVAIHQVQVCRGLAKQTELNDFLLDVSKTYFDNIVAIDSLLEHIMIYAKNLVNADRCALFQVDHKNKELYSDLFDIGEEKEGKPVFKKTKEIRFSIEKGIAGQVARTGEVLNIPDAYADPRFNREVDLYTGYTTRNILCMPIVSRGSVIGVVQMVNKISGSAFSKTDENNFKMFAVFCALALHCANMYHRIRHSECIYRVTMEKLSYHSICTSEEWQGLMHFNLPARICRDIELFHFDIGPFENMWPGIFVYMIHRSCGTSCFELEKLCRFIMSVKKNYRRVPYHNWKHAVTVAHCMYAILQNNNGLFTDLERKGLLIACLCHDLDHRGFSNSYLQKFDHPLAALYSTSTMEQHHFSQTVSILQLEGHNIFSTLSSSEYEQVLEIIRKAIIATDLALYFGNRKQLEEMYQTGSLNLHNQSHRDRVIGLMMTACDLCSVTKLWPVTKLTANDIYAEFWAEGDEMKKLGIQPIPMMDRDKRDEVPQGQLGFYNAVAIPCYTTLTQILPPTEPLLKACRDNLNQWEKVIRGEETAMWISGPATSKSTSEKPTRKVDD", "experiment": "Enzyme Inhibition Assay: Enzyme activity: An IMAP TR-FRET assay was used to analyze the enzyme activity (Molecular Devices Corp., Sunnyvale, Calif).", "units": {"IC50": "µM"}}
{"compound": "c1ccc2cc(N3CC[C@H](Oc4nccnc4C4CCOCC4)C3)ncc2c1", "IC50": 1.36}
{"compound": "CC(=O)N1CCC(c2cc(C)cnc2OC2CN(c3ccc4ccccc4n3)C2)CC1", "IC50": 0.0678}
{"compound": "O=C(c1nc2ccccc2[nH]1)N1CC(Oc2nccnc2C2=CCOCC2)C1", "IC50": 0.222}
{"compound": "CC(=O)N1CCC(c2cccnc2OC2CCN(c3cccc(Cl)n3)CC2)CC1", "IC50": 0.558}
{"compound": "CC(=O)N1CCC(c2cccnc2OC2CN(c3ccc4ccccc4n3)C2)CC1", "IC50": 0.0688}
{"compound": "CN1CCN(c2nccnc2OC2CN(c3ccc4ccccc4n3)C2)CC1=O", "IC50": 0.0339}
{"compound": "Cc1cnccc1-c1nccnc1OC1CCN(c2ccc3ccccc3n2)CC1", "IC50": 0.0347}
{"compound": "O=C(c1nc2ccccc2[nH]1)N1CCC(Oc2ncccc2C2CCOCC2)CC1", "IC50": 0.116}
{"compound": "c1ccc2c(N3CC(Oc4nccnc4C4CCOCC4)C3)nccc2c1", "IC50": 4.41}
{"compound": "COc1cccc(-c2nccnc2OC2CN(c3ncc4ccccc4n3)C2)c1", "IC50": 0.148}
{"compound": "OCC1CCN(c2ncc(N3CCCCC3)c(OC3CN(c4ccc5ccccc5n4)C3)n2)CC1", "IC50": 0.0184}
{"compound": "O=C(c1nc2ccccc2[nH]1)N1CC(Oc2nc3ccccc3nc2C2CCOCC2)C1", "IC50": 0.786}
{"compound": "CC(=O)N1CC=C(c2nccnc2OC2CN(C(=O)c3nc4ccccc4[nH]3)C2)CC1", "IC50": 0.0104}
{"compound": "COc1ncccc1-c1nc2ccccc2nc1OC1CN(c2ccc3ccccc3n2)C1", "IC50": 0.0055}
{"compound": "CC(=O)N1CCCC(c2cccnc2OC2CN(C(=O)c3ccccn3)C2)C1", "note": "(configuration not stated)", "IC50": 0.041}
{"compound": "CC(=O)N1CCC(c2nccnc2OC2CCN(c3cccc(Cl)n3)CC2)CC1", "IC50": 0.235}
{"compound": "O=C(c1ncc[nH]1)N1CCC(Oc2ncccc2C2CCOCC2)CC1", "IC50": 3.67}
{"compound": "OCC1CCN(c2ncc(Cl)c(OC3CN(c4ccc5ccccc5n4)C3)n2)CC1", "IC50": 0.01}
{"compound": "OCC1CCN(c2cncc(OC3CN(c4ccc5ccccc5n4)C3)n2)CC1", "IC50": 0.000639}
{"compound": "Cc1ccnc(C(=O)N2CCC(Oc3ncccc3C3CCOCC3)CC2)c1", "IC50": 0.118}
{"compound": "N#Cc1ccc(-c2nccnc2OC2CN(c3ccc4ccccc4n3)C2)cn1", "IC50": 0.0506}
{"compound": "OCC1CCN(c2nccnc2OC2CN(c3ccc4ccccc4n3)C2)CC1", "IC50": 0.0023}
{"compound": "Cc1ccncc1-c1nccnc1OC1CN(c2ccc3ccccc3n2)C1", "IC50": 0.251}
{"compound": "c1ccc(-c2nccnc2OC2CN(c3ccc4ccccc4n3)C2)nc1", "IC50": 1.22}
{"compound": "Brc1cccnc1OC1CN(c2cccnn2)C1", "IC50": 0.0253}
{"compound": "c1cnc(O[C@@H]2CCN(c3cc4ccccc4cn3)C2)c(C2CCOCC2)c1", "IC50": 1.83}
{"compound": "COc1cccc(-c2cnc(N3CCC(CO)CC3)nc2OC2CN(c3ccc4ccccc4n3)C2)c1", "IC50": 0.0033}
{"compound": "OC1CCN(c2nccnc2OC2CN(c3ccc4ccccc4n3)C2)C1", "note": "(configuration not stated)", "IC50": 0.067}
{"compound": "Cc1cc(-c2nccnc2O[C@@H]2CCN(c3ccc4ccccc4n3)C2)ccn1", "IC50": 0.255}
{"compound": "OCC1CCN(c2ncc(Br)c(OC3CN(c4cnc5ccccc5n4)C3)n2)CC1", "IC50": 0.0242}
{"compound": "O=C(c1nc2ccccc2[nH]1)N1CC[C@@H](Oc2nccnc2C2CCOCC2)C1", "IC50": 2.78}
{"compound": "CN1CCCN(c2nccnc2OC2CN(c3ccc4ccccc4n3)C2)CC1", "IC50": 2.99}
{"compound": "N#Cc1ccccc1-c1nccnc1OC1CN(c2ccc3ccccc3n2)C1", "IC50": 0.377}
{"compound": "CC(C)(C)OC(=O)N1CC=C(c2cnc(N3CCC(CO)CC3)nc2OC2CN(c3ccc4ccccc4n3)C2)CC1", "IC50": 0.0003}
{"compound": "CC(C)(C)OC(=O)N1C=C(c2nccnc2OC2CN(C(=O)c3nc4ccccc4[nH]3)C2)CCC1", "IC50": 0.0365}
{"compound": "Cc1cc(-c2nccnc2O[C@H]2CCN(c3ccc4ccccc4n3)C2)ccn1", "IC50": 0.639}
{"compound": "CC(=O)N1CC=C(c2nccnc2OC2CN(C(=O)c3cc(C)c[nH]3)C2)CC1", "IC50": 0.25}
{"compound": "FC1(F)CCCN(c2nccnc2OC2CN(c3ccc4ccccc4n3)C2)C1", "IC50": 0.0921}
{"compound": "COC(=O)N1CCC(c2nccnc2OC2CN(c3ccc4ccccc4n3)C2)CC1", "IC50": 0.158}
{"compound": "c1ccc2cc(N3CCC(Oc4nccnc4C4CCOCC4)CC3)ncc2c1", "IC50": 0.235}
{"compound": "N#CC1CCN(c2cc(F)cnc2OC2CN(c3ccc4ccccc4n3)C2)CC1", "IC50": 0.0151}
{"compound": "c1ccc(Cc2ccc3oc(-c4nccnc4OC4CN(c5ccc6ccccc6n5)C4)cc3c2)cc1", "IC50": 0.363}
{"compound": "O=C(c1nc2ccccc2s1)N1CCC(Oc2ncccc2C2CCOCC2)CC1", "IC50": 0.324}
{"compound": "Cc1cc(-c2nccnc2OC2CN(C(=O)c3nc4ccccc4[nH]3)C2)ccn1", "IC50": 0.156}
{"compound": "CC(=O)N1CCC=C(c2nccnc2OC2CN(C(=O)c3nc4ccccc4[nH]3)C2)C1", "IC50": 0.121}
{"compound": "OC1CN(c2nccnc2OC2CCN(c3ccc4ccccc4n3)CC2)C1", "IC50": 1.22}
{"compound": "CC(=O)N1CCC(c2nccnc2OC2CN(c3ccc4ccccc4n3)C2)CC1", "IC50": 0.00839}
{"compound": "OCC1CCN(c2ccc(Br)c(OC3CN(c4ccc5ccccc5n4)C3)n2)CC1", "IC50": 0.000229}
{"compound": "CC(=O)N1CCCC(c2cccnc2OC2CN(C(=O)CC(C)(C)C)C2)C1", "note": "(configuration not stated)", "IC50": 41.8}
{"compound": "CC(=O)N1CCN(c2nccnc2OC2CN(C(=O)c3nc4ccccc4[nH]3)C2)CC1", "IC50": 0.637}
{"compound": "COc1ncccc1-c1nccnc1OC1CCN(c2ccc3ccccc3n2)CC1", "IC50": 0.118}
{"compound": "CC1CCN(c2nccnc2OC2CN(c3ccc4ccccc4n3)C2)CC1", "IC50": 0.124}
{"compound": "OCC1CCN(c2nccnc2O[C@H]2CCN(c3ccc4ccccc4n3)C2)CC1", "IC50": 0.078}
{"compound": "Fc1cc(-c2nccnc2OC2CN(c3ccc4ccccc4n3)C2)ccn1", "IC50": 0.0395}
{"compound": "CC(=O)N1CC=C(c2nccnc2OC2CN(C(=O)OCc3ccccc3)C2)CC1", "IC50": 0.582}
{"compound": "CC(=O)N1CC=C(c2cccnc2OC2CN(c3nc4ccccc4s3)C2)CC1", "IC50": 0.346}
{"compound": "N#CC1CCN(c2nc3ccccc3nc2OC2CN(c3ccc4ccccc4n3)C2)CC1", "IC50": 0.0192}
{"compound": "CC(C)Oc1cc(F)cc(-c2nccnc2OC2CN(c3ccc4ccccc4n3)C2)c1", "IC50": 0.174}
{"compound": "CN(C)C1CCN(c2nccnc2OC2CN(c3ccc4ccccc4n3)C2)CC1", "IC50": 0.52}
{"compound": "O=C(c1nc2ccccc2[nH]1)N1CC(Oc2nccnc2C2CCOCC2)C1", "IC50": 0.884}
{"compound": "c1cnc(O[C@@H]2CCN(c3nc4ccccc4[nH]3)C2)c(C2CCOCC2)c1", "IC50": 3.59}
{"compound": "CN(C)C(=O)c1cccc(-c2nccnc2OC2CN(c3ccc4ccccc4n3)C2)c1", "IC50": 0.0228}
{"compound": "c1cnc(O[C@H]2CCN(c3cc4ccccc4cn3)C2)c(C2CCOCC2)c1", "IC50": 2.97}
{"compound": "Cc1cccc(N2CCC(Oc3ncccc3C3CCOCC3)CC2)n1", "IC50": 1.67}
{"compound": "CC(=O)N1CCC(c2cccnc2OC2CCN(c3ccc(C)cn3)CC2)CC1", "IC50": 1.17}
{"compound": "Cc1cccnc1C(=O)N1CCC(Oc2ncccc2C2CCOCC2)CC1", "IC50": 1}
{"compound": "O=C(c1nc2ccccc2[nH]1)N1CC(Oc2ncccc2C2=CCOCC2)C1", "IC50": 0.000864}
{"compound": "c1ccc2nc(N3CC[C@@H](Oc4nccnc4C4CCOCC4)C3)ccc2c1", "IC50": 0.109}
{"compound": "Cc1ccnc(N2CCC(Oc3ncccc3C3CCOCC3)CC2)c1", "IC50": 0.236}
{"compound": "O=C(c1cc2ccccc2cn1)N1CCC(Oc2ncccc2C2CCOCC2)CC1", "IC50": 0.126}
{"compound": "c1ccc2nc(N3CCC(Oc4nccnc4N4CCCC4)CC3)ccc2c1", "IC50": 0.286}
{"compound": "COc1cnccc1-c1cccnc1OC1CN(C(=O)OCc2ccccc2)C1", "IC50": 7.64}
{"compound": "CNC(=O)c1ccc(-c2nccnc2OC2CN(c3ccc4ccccc4n3)C2)cc1", "IC50": 0.015}
{"compound": "Nc1ccc(N2CCC(Oc3ncccc3C3CCOCC3)CC2)nc1", "IC50": 1.7}
{"compound": "Cc1ccc2nc(N3CCC(Oc4ncccc4C4CCOCC4)CC3)ccc2c1", "IC50": 0.472}
{"compound": "CC(=O)c1cccc(-c2nccnc2OC2CN(c3ccc4ccccc4n3)C2)c1", "IC50": 0.0112}
{"compound": "N#Cc1ccc(-c2nccnc2OC2CN(c3ccc4ccccc4n3)C2)cc1", "IC50": 0.0394}
{"compound": "CC(=O)N1CCC(c2cccnc2OC2CCN(c3ncccc3C)CC2)CC1", "IC50": 1.49}
{"compound": "Cc1ccc2nc(N3CCC(Oc4nccnc4C4CCOCC4)CC3)ccc2c1", "IC50": 0.276}
{"compound": "Brc1ccc(N2CCC(Oc3ncccc3C3CCOCC3)CC2)nc1", "IC50": 0.138}
{"compound": "c1cnc(OC2CN(c3ccc4ccccc4n3)C2)c(C2CCOCC2)c1", "IC50": 1.8}
{"compound": "FC(F)(F)c1ccc(N2CCC(Oc3ncccc3C3CCOCC3)CC2)nc1", "IC50": 2.2}
{"compound": "CC(=O)N1CCC(c2nccnc2OC2CCN(c3cc(Cl)ccn3)CC2)CC1", "IC50": 0.096}
{"compound": "CC(=O)N1CCC(c2nccnc2OC2CCN(c3ccc(Cl)cn3)CC2)CC1", "IC50": 0.821}
{"compound": "c1cnc(O[C@@H]2CCN(c3nccc4ccccc34)C2)c(C2CCOCC2)c1", "IC50": 0.981}
{"compound": "Cc1cc(-c2cnc(N3CCC(CO)CC3)nc2OC2CN(c3ccc4ccccc4n3)C2)ccn1", "IC50": 0.0003}
{"compound": "CC(=O)N1CCC(c2cccnc2OC2CCN(c3ccc(Cl)cn3)CC2)CC1", "IC50": 1.2}
